Counter-ions that a name gives are not always drawn.
Tests used:
[1] = molecular target: T1, cMET enzyme (amino acids 1023-1360) (Homo sapiens, UniProt P08581); assay: Determination of inhibition of cMET (capillary electrophoresis, phosphorylated peptide product); format: biochemical; conditions: 1.2 nM cMET, 50 μM ATP, 2 μM FL-2 peptide, 2 hours room temperature
T1 construct: The cMET enzyme (amino acids 1023-1360) nominally at 24 μM was held at −80° C. until use; His tag (N, cleaved yes); made in house; host or cells: Sf9 cells

MKN45 = assay: Inhibition of cell viability (MTS), MKN45; format: cell-based; conditions: MKN45 cells, 96 hours incubation
Method in brief: (§1)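 Cells seeded at 2,000-7,500/well, attached ~24 h, then treated in duplicate with 1:2.5 serial dilutions at 0.5% final DMSO. Viability by MTS; EC50 from non-linear fit after background correction and normalisation to DMSO. MKN45 and EBC1 are cMET-dependent; A549 serves as negative control.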

EBC1 = assay: Inhibition of cell viability (MTS), EBC1; format: cell-based; conditions: EBC1 cells, 96 hours incubation
Method in brief: as §1

A549 = assay: Inhibition of cell viability (MTS), A549 (negative control line); format: cell-based; conditions: A549 cells (negative control), 96 hours incubation
Method in brief: as §1

T1 sequence (P08581 1023-1360): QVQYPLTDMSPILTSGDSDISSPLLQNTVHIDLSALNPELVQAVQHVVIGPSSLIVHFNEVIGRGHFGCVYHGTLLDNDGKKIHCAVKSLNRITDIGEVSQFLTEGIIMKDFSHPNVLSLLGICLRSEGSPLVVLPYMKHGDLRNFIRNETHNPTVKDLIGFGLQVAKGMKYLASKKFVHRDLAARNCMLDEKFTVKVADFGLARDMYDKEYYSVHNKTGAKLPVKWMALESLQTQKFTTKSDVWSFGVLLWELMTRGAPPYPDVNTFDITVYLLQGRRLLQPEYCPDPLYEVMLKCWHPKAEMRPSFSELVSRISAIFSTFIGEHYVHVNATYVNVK

Row | SMILES | IC50 [1] [nM] | EC50 (MKN45; Homo sapiens, MKN-45, 96 h) [nM] | EC50 (EBC1; Homo sapiens, EBC-1, 96 h) [nM] | EC50 (A549; Homo sapiens, A549, 96 h) [nM] | melting point [°C] | EC50 (MKN45) [nM] | EC50 (EBC1) [nM] | EC50 (A549) [nM]
1 | CC(c1ccc2nc(NC(=O)C3CC3)cn2n1)c1nnc2ccc(-c3cccc(N(C)C)c3)cn12 (centres unmarked) [Compound 73, N-(6-(1-(6-(3-(dimethylamino)phenyl)-[1,2,4]triazolo[4,3-a]pyridin-3-yl)ethyl)imidazo[1,2-b]pyridazin-2-yl)cyclopropanecarboxamide] | < 30 | < 30 | < 30 | 8000 to 25000 |  |  |  | 
2 | O=C(Nc1cn2nc(C(F)(F)c3nnc4ccc(-c5cnoc5)cn34)ccc2n1)C1CC1 [Compound 46, N-(6-(difluoro(6-(isoxazol-4-yl)-[1,2,4]triazolo[4,3-a]pyridin-3-yl)methyl)imidazo[1,2-b]pyridazin-2-yl)cyclopropanecarboxamide] | 30 to 59 | 60 to 100 | 60 to 100 | > 50000 |  |  |  | 
3 | O=C(Nc1cn2nc(Sc3nnc4ccc(-c5cnn(CCO)c5)cn34)ccc2n1)C1CC1 (as salt: HCl) [Compound 32] |  |  |  |  | 182 to 184 |  |  | 
4 | CC(c1ccc2nc(NC(=O)C3CC3)cn2n1)c1nnc2ccc(-c3ccc(S(C)(=O)=O)cc3)cn12 (centres unmarked) [Compound 60, N-(6-(1-(6-(4-(methylsulfonyl)phenyl)-[1,2,4]triazolo[4,3-a]pyridin-3-yl)ethyl)imidazo[1,2-b]pyridazin-2-yl)cyclopropanecarboxamide] | < 30 | 60 to 100 | 60 to 100 | > 50000 |  |  |  | 
5 | Cn1cc(-c2ccc3nnn(Cc4ccc5nc(NC(=O)C6CC6)cn5n4)c3c2)cn1 [13 (free base), N-(6-((6-(1-methyl-1H-pyrazol-4-yl)-1H-benzo[d][1,2,3]triazol-1-yl)methyl)imidazo[1,2-b]pyridazin-2-yl)cyclopropanecarboxamide] | 30 to 59 |  |  |  | 250.2 to 251.6 | < 30 | < 30 | > 50000
6 | CS(=O)(=O)c1cncc(-c2ccc3nnn(Cc4ccc5nc(NC(=O)C6CC6)cn5n4)c3c2)c1 [Compound 21] | > 100 | > 630 | > 200 | > 50000 |  |  |  | 
7 | O=C(Nc1cn2nc(C(F)(F)c3nnc4ccc(-c5cccc(F)c5)cn34)ccc2n1)C1CC1 [Compound 77, N-(6-(difluoro(6-(3-fluorophenyl)-[1,2,4]triazolo[4,3-a]pyridin-3-yl)methyl)imidazo[1,2-b]pyridazin-2-yl)cyclopropanecarboxamide] | < 30 | < 30 | < 30 | > 50000 |  |  |  | 
8 | O=C(Nc1cn2nc(Sc3nnc4ccc(-c5ccc(N6CCNCC6)cc5)cn34)ccc2n1)C1CC1 [Compound 36, N-(6-(6-(4-(piperazin-1-yl)phenyl)-[1,2,4]triazolo[4,3-a]pyridin-3-ylthio)imidazo[1,2-b]pyridazin-2-yl)cyclopropanecarboxamide] | < 30 | 250 to 630 | 35 to 99 | > 50000 |  |  |  | 
9 | CNC(=O)c1ccc(-c2ccc3nnc(C(C)c4ccc5nc(NC(=O)C6CC6)cn5n4)n3c2)cc1 (centres unmarked) [Compound 68, 4-(3-(1-(2-(cyclopropanecarboxamido)imidazo[1,2-b]pyridazin-6-yl)ethyl)-[1,2,4]triazolo[4,3-a]pyridin-6-yl)-N-methylbenzamide] | < 30 | 30 to 59 | 30 to 59 | > 50000 |  |  |  | 
10 | CC(c1ccc2nc(NC(=O)C3CC3)cn2n1)c1nnc2ccc(-c3ccc(C#N)c(F)c3)cn12 (centres unmarked) [Compound 72, N-(6-(1-(6-(4-cyano-3-fluorophenyl)-[1,2,4]triazolo[4,3-a]pyridin-3-yl)ethyl)imidazo[1,2-b]pyridazin-2-yl)cyclopropanecarboxamide] | < 30 | < 30 | < 30 | > 50000 |  |  |  | 
11 | O=C(Nc1cn2nc(Sc3nnc4ccc(-c5cnc(NCCCO)nc5)cn34)ccc2n1)C1CC1 [Compound 109, N-(6-(6-(2-(3-hydroxypropylamino)pyrimidin-5-yl)-[1,2,4]triazolo[4,3-a]pyridin-3-ylthio)imidazo[1,2-b]pyridazin-2-yl)cyclopropanecarboxamide] | 250 to 630 | 8000 to 25000 | 8000 to 25000 | 8000 to 25000 |  |  |  | 
12 | Cn1cc(-c2ccc3nnc(C(F)(F)c4ccc5nc(N)cn5n4)n3c2)cn1 [Compound 99, 6-(difluoro(6-(1-methyl-1H-pyrazol-4-yl)-[1,2,4]triazolo[4,3-a]pyridin-3-yl)methyl)imidazo[1,2-b]pyridazin-2-amine] | 250 to 630 | 100 to 249 | 100 to 249 | > 50000 |  |  |  | 
13 | COCCOc1ccc(-c2ccc3nnc(C(F)(F)c4ccc5nc(NC(=O)C6CC6)cn5n4)n3c2)cc1 [Compound 91, N-(6-(difluoro(6-(4-(2-methoxyethoxy)phenyl)-[1,2,4]triazolo[4,3-a]pyridin-3-yl)methyl)imidazo[1,2-b]pyridazin-2-yl)cyclopropanecarboxamide] | < 30 | < 30 | < 30 | > 50000 |  |  |  | 
14 | O=C(Nc1cn2nc(Cn3nnc4ccc(-c5cnn(CCO)c5)cc43)ccc2n1)C1CC1 [Compound 24] | 60 to 100 | 100 to 249 | 35 to 99 | > 50000 |  |  |  | 
15 | COc1ccc(-c2ccc3nnc(Sc4ccc5nc(NC(=O)C6CC6)cn5n4)n3c2)cn1 [Compound 102, N-(6-(6-(6-methoxypyridin-3-yl)-[1,2,4]triazolo[4,3-a]pyridin-3-ylthio)imidazo[1,2-b]pyridazin-2-yl)cyclopropanecarboxamide] | 30 to 59 | 60 to 100 | 30 to 59 | > 50000 |  |  |  | 
16 | O=C(Nc1cn2nc(Sc3nnc4ccc(-c5nn[nH]n5)cn34)ccc2n1)C1CC1 [Compound 38, N-(6-(6-(2H-tetrazol-5-yl)-[1,2,4]triazolo[4,3-a]pyridin-3-ylthio)imidazo[1,2-b]pyridazin-2-yl)cyclopropanecarboxamide] | > 100 | > 630 | > 200 | > 50000 |  |  |  | 
17 | Cn1cc(-c2ccc3nnn(Cc4ccc5nc(NC(=O)C6CC6)cn5n4)c3c2)cn1 [13 (HCl Salt), N-(6-((6-(1-methyl-1H-pyrazol-4-yl)-1H-benzo[d][1,2,3]triazol-1-yl)methyl)imidazo[1,2-b]pyridazin-2-yl)cyclopropanecarboxamide] | 30 to 59 |  | < 35 |  |  | 100 to 249 |  | 8000 to 25000
18 | CC(c1ccc2nc(NC(=O)C3CC3)cn2n1)c1nnc2ccc(-c3ccc(C#N)cc3)cn12 (centres unmarked) [Compound 63, N-(6-(1-(6-(4-cyanophenyl)-[1,2,4]triazolo[4,3-a]pyridin-3-yl)ethyl)imidazo[1,2-b]pyridazin-2-yl)cyclopropanecarboxamide] | < 30 | < 30 | < 30 | > 50000 |  |  |  | 
19 | CCOc1ccc(-c2ccc3nnc(C(C)c4ccc5nc(NC(=O)C6CC6)cn5n4)n3c2)cc1 (centres unmarked) [Compound 69, N-(6-(1-(6-(4-ethoxyphenyl)-[1,2,4]triazolo[4,3-a]pyridin-3-yl)ethyl)imidazo[1,2-b]pyridazin-2-yl)cyclopropanecarboxamide] | < 30 | < 30 | < 30 | > 50000 |  |  |  | 

Source: patent US8178534B2, “cMET inhibitors” (Takeda Pharmaceutical Company Limited, priority 2008, dated 2012)
